In ChEMBL document CHEMBL3507680, “University of Dundee, Gates Library screen for HepG2 cell viability”:

Experiment: Human HepG2 cell viability assay in 384 well format
Format: toxicity, cell-based
Design: dose 125 nL, time 70.5 hour; cytotoxicity at 70.5 h: concentration not given beside the values
Conditions: HepG2 cells, read-out: Inhibition

Compound	cytotoxicity at 70.5 h
N#Cc1ccc(N2CCC(OC3CCOCC3)CC2)cc1Cl	1.95%
COc1ccc(Br)cc1CN(C)C(C)c1nc(C)no1 (configuration not stated)	-20.1%
CCN(CC)CCCC(C)NC(=O)c1ccccc1-n1cccn1 (configuration not stated)	-9.46%
CC(C)COc1ccccc1C(N)CC(C)C (configuration not stated)	-10.1%
CC(O)C1CCN(c2cc(Cl)ccc2C#N)CC1 (configuration not stated)	-14.2%
CCOCCC(=O)NCC(C)c1ccsc1 (configuration not stated)	-5.93%
N#CCCN(Cc1ccco1)C(=O)CCCc1ccccc1	-4.22%
CC(=O)N1CCC(C(=O)N2CCC(=Cc3cccc(F)c3)CC2)CC1	-11.3%
CCNC(=O)CS(=O)(=O)NC1CCC(C)CC1 (configuration not stated)	-14.8%
NC(=O)c1cnn2c1NCC(CNC1(c3ccccc3)CCC1)C2 (configuration not stated)	-9.04%
c1ncc2c(n1)CN(c1ncnc3[nH]ccc13)CC2	-4.47%
Cc1cccc(C(=O)NC(C(=O)NCc2ccc(O)nc2)C(C)C)c1 (configuration not stated)	-10.8%
Cc1nc(CCCNC(=O)Nc2ccc(F)cc2F)n[nH]1	-6.94%
CC(CCc1ccc(F)c(F)c1)NS(=O)(=O)Cc1ccon1 (configuration not stated)	20.5%
CCNC(=O)NC(c1ccc(C)cc1)c1cccc(S(C)(=O)=O)c1 (configuration not stated)	-11%
Cc1ccc(OCC(C)NS(=O)(=O)Cc2ccon2)cc1 (configuration not stated)	-9.91%
CC(C)N(C(=O)Cn1nc2n(c1=O)CCCCC2)C1CCC1	-9.98%
NC(=O)CCC1CCCN(c2ccc3ccc(F)cc3n2)C1 (configuration not stated)	-3.15%
Cc1ccn(CC(=O)NCCCOc2ccccc2F)c(=O)c1	-7.65%
Cc1nn(C)c(C)c1C(=O)NC(C)CC(=O)c1cccs1 (configuration not stated)	-11.1%
Cc1c(C(=O)NC(C)CC(=O)c2cccs2)cnn1C (configuration not stated)	19.6%
CC(c1cccnc1)N(C)C(=O)NCCOc1ccc(C#N)cc1 (configuration not stated)	-11.1%
CC(C)CC(NCc1ccsc1)c1ccccn1 (configuration not stated)	22.4%
CC(C)CC(NCc1cscn1)c1ccccn1 (configuration not stated)	-7.87%
N#Cc1ccccc1CN1CCC(CN2CCOCC2)C1 (configuration not stated)	-5.31%

Compound	cytotoxicity at 70.5 h
Nc1nccnc1C(=O)NC1CCN(Cc2ccccc2)C1 (configuration not stated)	-10.2%
O=C(CCc1nnc(-c2ccsc2)o1)NCC1CCN(C2CC2)C1 (configuration not stated)	-4.06%
O=C(CCc1nc(-c2cccnc2)no1)NCC1CCN(C2CC2)C1 (configuration not stated)	-17.6%
Cc1nnc(CN(Cc2cccc3c2OCO3)CC2CCCO2)n1C (configuration not stated)	-19.6%
O=C(Cn1cnc2ccsc2c1=O)c1ccc2c(c1)OCCO2	-8.67%
NC(=O)CN(Cc1ncc(-c2ccc(F)cc2)o1)C1CCCC1	-14.2%
Cc1cccnc1NC(=O)c1ccc(F)c(S(=O)(=O)NC2CC2)c1	-2.44%
O=C(NCc1ccnc(OCC2CC2)c1)C1COc2ccccc2O1 (configuration not stated)	0.151%
CCc1cc(NCCCc2nc(C)no2)nc(-c2ccncc2)n1	-5.75%
NC(=O)CC1CCN(Cc2ccccc2OCC(F)(F)F)CC1	-8.22%
CCOc1cc(NC(=O)N2CCC3(CCOCC3)C2)ccc1C	-7.4%
CCc1cc(NCCCNS(C)(=O)=O)nc(-c2ccncc2)n1	-9.08%
CC(C)N(C)C(=O)C1CCN(Cc2cnc3ccccn23)CC1	-5.16%
Cc1csc(CCNC(=O)N2CCC(NC(=O)OC(C)(C)C)CC2)n1	-11.5%
Cc1csc(CCNC(=O)N2CCC(n3cccc3)CC2)n1	-7.68%
N#CC1(NC(=O)c2cc(Cl)ccc2OC(F)F)CCOCC1	-17.7%
CN(C(=O)C1CCN(Cc2cnc3ccccn23)CC1)c1ccccc1	-7.69%
COc1ncc(NCc2ccc(C#N)cc2)cc1C(N)=O	-4.6%
CN(CC(O)C(F)(F)F)C(=O)Nc1cccc(Cn2cccn2)c1 (configuration not stated)	-6.9%
COc1ncc(NCc2cc(C#N)cs2)cc1C(N)=O	-5.52%
COc1ncc(NCc2ccc(F)cc2)cc1C(N)=O	-6.54%
CN(CC(O)C(F)(F)F)C(=O)Nc1cccc(N2CCCC2)c1 (configuration not stated)	-3.73%
O=C(NCCc1nccs1)N1CCC(n2cccc2)CC1	-9.14%
NCC(CO)Cc1cccc(OC(F)(F)F)c1 (configuration not stated)	2.39%
NCC(CO)Cc1ccc(OC(F)(F)F)cc1 (configuration not stated)	-5.55%

Compound	cytotoxicity at 70.5 h
CN(C)c1cc(CNC(=O)C2COc3ccccc3O2)ccn1 (configuration not stated)	-6.63%
CN(C(=O)c1ccc(Cl)cn1)c1ccccc1S(C)(=O)=O	-5.72%
Cc1oncc1NS(=O)(=O)c1c[nH]c2ncccc12	-3.88%
CCN(CC)CCSc1ncnc2[nH]ncc12	1.79%
CC(C)(C)C(=O)NCCNCc1ccc(Cl)c2cccnc12	-0.239%
CCOc1ccccc1N(C)C(=O)c1cscn1	0.806%
CCCN1Cc2ccccc2CC1C(=O)NC (configuration not stated)	-0.114%
CC(C)COc1cncc(NCC(O)c2ccco2)n1 (configuration not stated)	33.1%
Cc1nn(C)c(C)c1OCC(=O)NCC(O)c1ccccc1F (configuration not stated)	0.771%
CNC(=O)C1Cc2ccccc2CN1CCCc1ccccc1 (configuration not stated)	-4.46%
COc1ccc(C#N)cc1CSCCN1CCOCC1	-9.88%
N#Cc1ccc(CSCCN2CCOCC2)cc1	-5.15%
N#Cc1ccc(F)c(CSCCN2CCOCC2)c1	-7.03%
Cc1nc(C)n(CC2CCCCN2CCCC#N)n1 (configuration not stated)	6.75%
c1ccc(CCN2CCCC(c3noc(C4CC4)n3)C2)cc1 (configuration not stated)	-5.63%
CC(=O)N1CCC(C(=O)Nc2nc(C3CC3)cs2)CC1	-4.64%
Cc1cc(Br)oc1C(=O)N1CCCN(CC(N)=O)CC1	-7.35%
CCN(CC)C(C)CNC(=O)c1cccnc1Oc1cccnc1 (configuration not stated)	-5.14%
COc1ccc(C(CO)NC(=O)Nc2cccc(C(C)=O)c2)cc1 (configuration not stated)	-6.17%
COc1cc(C)nc(N2CCN(C(=O)CCc3ccsc3)CC2)n1	-4.26%
CCN1CCC(NC(=O)CN2CCCCC2Cn2cccn2)CC1 (configuration not stated)	-4.33%
NC(=O)CCn1ccc(NC(=O)c2ccc(Br)o2)n1	-5.23%
Cc1ccc(-c2nc(CN3CCOC(Cn4cncn4)C3)cs2)o1 (configuration not stated)	-6.85%
CNC(=O)CCN1CCN(C(C)c2ccc(Cl)cc2)CC1 (configuration not stated)	-6.21%
Cc1ccc(CNCCS(=O)(=O)N2CCOCC2)cc1C	-6.06%

Compound	cytotoxicity at 70.5 h
CC(c1ccc(Cl)cc1)N1CCN(CCCS(N)(=O)=O)CC1 (configuration not stated)	35.8%
Cn1cc(C(=O)NCc2ccc(N3CCNC(=O)C3)c(F)c2)cn1	-4.04%
Cc1nc(C)n(CC2CCCCN2CCCS(N)(=O)=O)n1 (configuration not stated)	-5.16%
Cc1cc(C)n(CC2CCCCN2CCCS(=O)(=O)N(C)C)n1 (configuration not stated)	1.93%
CCOC(C)c1nc(CN2CCN(CC(F)F)CC2)cs1 (configuration not stated)	-5.97%
N#Cc1cccc(OCCN2CCCC(c3noc(C4CC4)n3)C2)c1 (configuration not stated)	-5.39%
Cc1cccc(NC(=O)NCC2(N3CCOCC3)CCSC2)c1 (configuration not stated)	3.35%
CC1CCN(CCNC(=O)Nc2ccc(F)cc2Cl)CC1	9.06%
CCC(CNC(=O)c1ccc(F)cc1F)N1CCc2ccccc2C1 (configuration not stated)	-7.79%
CCC(CNC(=O)c1cncc(Br)c1)N1CCc2ccccc2C1 (configuration not stated)	-5.93%
Cc1csc(CNC(=O)NCC(O)c2ccc(F)cc2F)n1 (configuration not stated)	5.96%
Cc1csc(CNC(=O)NCC(O)c2ccc(F)c(F)c2)n1 (configuration not stated)	10.8%
O=C(NCC1(N2CCOCC2)CCSC1)Nc1cn[nH]c1 (configuration not stated)	-10.2%
Cc1nc(CCNC(=O)NCC(O)c2cccc(Cl)c2)cs1 (configuration not stated)	-7.03%
CCN(Cc1ccco1)C(=O)NCc1nnc2n1CCCCC2	5.47%
O=C(CN1C(=O)c2ccccc2CS1(=O)=O)c1ccccc1	-6.1%
CC(=O)c1cccc(OCCCC(=O)N(C)CC(N)=O)c1	-7.52%
Cc1cc(S(=O)(=O)N2CCCN3CCCC3C2)ccc1F (configuration not stated)	-9.81%
Cc1cc(CNC(=O)NCCOc2ccc(F)c(F)c2)on1	-6.89%
NC(=O)c1cccc(CNC(=O)NCCOc2ccc(F)c(F)c2)c1	-2.9%
CN(Cc1ccco1)Cc1ccccc1CNC(=O)c1cnc[nH]1	13.3%
COc1ccccc1OCC(=O)NS(=O)(=O)c1ccc(F)cc1F	-8.29%
Nc1ccnc(CNc2cc(F)ccc2OCC2CCCO2)n1 (configuration not stated)	-9.07%
Fc1ccc(OCC2CCCO2)c(NCc2noc(C3CC3)n2)c1 (configuration not stated)	-7.27%
COc1ccc(F)cc1C(=O)Nc1nnc(C)s1	6.71%

Compound	cytotoxicity at 70.5 h
CCOC(=O)NC(CNC(=O)c1cc(Cl)ccn1)CC(C)C (configuration not stated)	5.7%
CCOC(=O)NC(CNC(=O)c1cccnc1SC)CC(C)C (configuration not stated)	8.28%
CCOC(=O)NC(CNC(=O)c1cccc(C)n1)CC(C)C (configuration not stated)	7.69%
CC(C)c1cc(C(=O)N2CCN(Cc3ccco3)CC2)n[nH]1	32.7%
O=C(NCCNc1ncccn1)c1cnc(-c2ccccc2)nc1	-2.38%
CCS(=O)(=O)NCCNC(=O)c1cnc(-c2ccccc2)nc1	-8.98%
N#Cc1ccc(CNC(=O)NC2CCN(CC(F)(F)F)C2)cc1 (configuration not stated)	-5.15%
c1ccc(NCc2ccc(Cn3ccnc3)cc2)nc1	41.7%
Cc1cc(C(=O)Nc2cccn(Cc3ccc(F)cc3)c2=O)no1	0.798%
CC(C)Nc1cccc(CNC(=O)N2CCCC2)c1	-5.5%
COC(=O)CN(C(=O)c1ccc(-n2ccnc2)cc1)C1CC1	-1.73%
COCCN(CCC#N)Cn1cc(Cl)cn1	-2.01%
COCC(C)N(C)C(=O)c1ccc2nncn2c1 (configuration not stated)	-2.4%
CCc1cc(N2CCCC(c3noc(CC)n3)C2)ncn1 (configuration not stated)	-5.13%
Cn1cc(S(=O)(=O)NC(=O)C2(c3ccccc3)CCC2)cn1	-4.68%
CCOC1CCN(C(=O)c2csc(S(N)(=O)=O)c2)CC1	-4.71%
COCC(=O)Nc1ccc(Sc2nncn2C)c(Cl)c1	10.4%
Cn1cnnc1Sc1ccc(NC(=O)C2CC2)cc1Cl	-9.39%
Cc1cccc(C2(C(=O)NS(=O)(=O)c3cnn(C)c3)CCCC2)c1	-1.9%
CSCC(C)(O)CNc1cccc(F)c1C#N (configuration not stated)	-15.5%
Fc1ccc(OCCCN2CC(n3cccn3)C2)cc1	-8.19%
NC1CCN(C(=O)c2c(F)cccc2Br)CC1	-15.6%
